Data on 1 compound can be found in US20260055081A1, “Metal Chelator Compounds, Coordination Complexes, and Methods of Preparation and Use Thereof” (University of Puerto Rico, priority 2022, published 2026).

The test system of series [1] is Jurkat cells. The experiment in a line: Apoptosis mechanistic cell viability study (Q-VD-OPh). The series is classed as cell-based, human. The settings on record: 10 μM Q-VD-OPh pretreatment, 2 μM DefNEtTrp, 72 h. The protocol:
Apoptosis mechanistic cell viability study. Jurkat cells were seeded into 96-well plates, as indicated in the MTT assay described above. The cells were treated with 10 μM of the apoptosis inhibitor Q-VD-OPh (Q-V-O). Another group of cells were treated with media alone. After 1 h incubation, half of the cells supplemented with Q-V-O were treated with 2 μM DefNEtTrp or 2 μM cisplatin, as positive control, while the other half was treated with media alone. The final percentage of DMF was maintained at 0.5% (v/v). The MTT assay was performed with these samples (n=6). A student t-test was performed to evaluate the difference in the viability of cells treated with DefNEtTrp or cisplatin and supplemented with and without Q-V-O.

Series [2] has as its system Ovarian cancer cell lines. The experiment in a line: NCI 60 five-dose screen, ovarian panel. The series is classed as cell-based, human. The note with it: 48 h. The protocol: (§1) National Cancer Institute Cancer Cell Line (NCI 60) Screen of DefNEtTrp. Details of the methodology for NCI 60 cell line screening are described at http://dtp.nci.nih.gov/branches/btb/ivclsp.html. The cells, grown in supplemented RPMI-1640 medium, are seeded in 96 well plates at an appropriate density and incubated for 24 h. The test compounds are dissolved in DMSO and incubated with cells at a single dose of 10.0 μM for 48 h. The assay is terminated by addition of cold trichloroacetic acid, and the cells are fixed and stained with sulforhodamine B. Bound stain is solubilized, and the absorbance is read on an automated plate reader. […] Using the seven absorbance measurements [time zero, […], control growth, (C), and test growth in the presence of drug at the five concentration levels (Tf)], the percentage growth was calculated at each of the drug concentrations levels as: [(Tf−Ti)/(C−Ti)]×100 for concentrations for which Tf≥Ti and [(Tf−Ti)/Ti]×100 for concentrations for which Tf<Ti. Three-dose response parameters (GI50, TGI, and LC50) were calculated for each of the experimental agents in five dose assay. […] The total growth inhibition (TGI) was calculated from Tf=Ti, which was the drug concentration resulting in total growth inhibition and signified the cytostatic effect. […]

The subject of series [3] is Colon cancer cell lines. The experiment in a line: NCI 60 five-dose screen, colon panel. The series is classed as cell-based, human. The settings on record: 48 h. The protocol: as §1
A short description of series [4]: Aqueous solubility (observation). The format is physicochemical.
Series [5] concerns Jurkat Leukemia cell line. The experiment in a line: Jurkat cell viability (MTT assay). The series is classed as cell-based. The settings on record: 72 h. The protocol:
Jurkat cell culturing and cell viability studies. Jurkat cells are nonadherent cells, and they were cultured in an RPMI-1640 media (supplemented with 10% FBS (v/v) and 1% antibiotic solution (v/v) of penicillin/streptomycin) in non-tissue-culture treated 25 mL flasks according to the known protocol provided by the supplier ATCC. The cell passaging was done at 70% confluency by taking 3 mL of cells and diluting to 25 mL of fresh media. The cells were incubated at 37° C. in 5% CO2 atmosphere.
Jurkat cytotoxicity of DefNEtTrp (6), Def (5), NEtTrp (4), Trp, and 1:1 combinations of 5 with 4 and 5 with Trp was determined by the colorimetric 3-(4,5-dimethylthiazol-2-yl)-2,5-diphenyltetrazolium bromide (MTT) assay. Incubation conditions were the same in all the steps. Cells in 80-95% confluence (grown in standard circular tissue culture dishes, BD Falcon) were separately seeded into 96-well plates using phenol red free RPMI-1640 media (containing 10% FBS and 1% streptomycin/penicillin) in a volume of 50 μL at a concentration of 5.0×10^5 cells/mL. Following this procedure, the Jurkat cells were treated immediately. Stock solution of the compounds were first prepared in DMF at 5 mM and stored at 4° C. for up to 30 days. The stock solution was diluted to specific concentrations using 1×PBS (0.2-20 μM) while DMF was maintained at 1% (v/v). 50 μL of diluted solutions were added in all cell containing wells with at least six replicates per concentration (n=6). The final percentage (v/v) of DMF was 0.5%. The cells were also co-treated with 5 with 4 and 5 with Trp in a 1:1 mole equivalent ratio over the same concentration range but as a combined concentration of both compounds. Control wells in the plates consisted of one lane of cells treated with media alone including 0.5% DMF (v/v) as the measure of 100% viable cell growth in the media. Another control lane consisted of no cells with media including 0.5% DMF (v/v) as a measure of the background with no viable cells. The plates were incubated for 72 h. At 4 h before completion of the incubation time, 25 μL of MTT solution (sterile filtered 5 mg/mL solution, dissolved in 1×PBS buffer) was added to each well. During addition of the MTT solution, the plates were protected from light. After completion a 50 μL portion of 4% (w/v) SDS solution (sterile filtered, dissolved in Tris buffer 1M, pH=10) was added to each well and incubated to solubilize formazan crystals after MTT cell labeling. The absorbance of each well was measured at 570 nm (absorbance of the formazan product at pH >10.0) and 800 nm (as a background correction) using a Tecan plate reader. The absorbance of all wells was compared to the absorbance of the untreated cells with the MTT set as the 100% viable cell standard and the absorbance of the no cell control set as the 0% viable cell standard. Nonlinear regression in GraphPad Prism 8 was utilized to fit the growth curve over the various drug concentrations to determine the half-maximal inhibitory concentration (IC50). All cell viability experiments, including non-Jurkat cells, were repeated at least once for biological duplicates. To confirm cell death at the higher concentration dosages of the compounds and combinations, dead cells were blue stained with trypan blue and visually inspected under the microscope.
Background: Tetrazolium dyes change colour on reduction, which living cells bring about.

The test system of series [6] is Jurkat cells. The experiment in a line: Co-treatment with Q-VD-OPh and Fer-1, cell viability. The format is cell-based, human. The note with it: 10 μM Fer-1/Q-VD-OPh, treatment with 2 μM, 72 h. The protocol:
FIG. 23 is a bar graph showing observed changes in the % cell viability of Jurkat cells treated with 10 μM Ferrastatin-1/Q-VD-OPh (Fer-1/Q-V-O) in combination and then treated for 72 h with 2 μM DefNetTrp (DNT), or media alone. * p-value <0.01 vs the corresponding non-treated Fer-1/Q-V-O group.

Where [7] appears, read: cell lines in which TGI was observed.
Where [8] appears, read: Homo sapiens, read-out: GI50 (calculated average).

In the case of `Nc1cccnc1/C=N/NC(=S)NCCNC(=O)c1ccc(-n2nc(-c3ccccc3O)nc2-c2ccccc2O)cc1` [DefNEtTrp, deferasirox nitrogen ethyl triapine], the “change in viability of cells pretreated with Q-VD-OPh” value in series [1] was “two-fold increase in viability”. Further, the “TGI (calculated average)” value was 9.82 µM in series [2] (setting [7]) and 12.22 µM in series [3] (setting [7]). Further, the GI50 (in general, the concentration that inhibits growth by half) in series [2] (setting [8]) is 1.12 µM; in series [3] (setting [8]) it was 0.87 µM. In series [4], the water solubility result is given as “limited water solubility”. The IC50 – broadly, the concentration that inhibits the measured activity by half – in series [5] (Homo sapiens, Jurkat cell line, MTT) is 0.77 ± 0.06 µM. Moreover, the “cytotoxic effect compared with Def, NEtTrp and Trp in single drug and combination drug treatments” value in series [5] (Jurkat) was “superior cytotoxic effect”. Besides, the “change in viability with equimolar Q-VD-OPh and Fer-1 co-treatment” value in series [6] is recorded as “three-fold increase in the viability”.
